Measurements as given in ChEMBL document CHEMBL3588777, “Acetate-Derived Metabolites from the Brown Alga Lobophora variegata” (2015).
≈ marks a conversion by molar mass, not a printed value.

Assays:
Enterococcus faecalis [1] = experiment: Antibacterial activity against Enterococcus faecalis ATCC 29212 assessed as inhibition of bacterial growth at 100 ug/mL incubated at 37 degC for 24 hrs by broth microdilution assay; format: functional; conditions: ATCC 29212, 24 h
Escherichia coli [2] = experiment: Antibacterial activity against Escherichia coli ATCC 25922 assessed as inhibition of bacterial growth at 100 ug/mL incubated at 37 degC for 24 hrs by broth microdilution assay; format: functional; conditions: ATCC 25922, 24 h
Staphylococcus aureus [3] = experiment: Antibacterial activity against Staphylococcus aureus ATCC 25923 assessed as inhibition of bacterial growth at 100 ug/mL incubated at 37 degC for 24 hrs by broth microdilution assay; format: functional; conditions: ATCC 25923, 24 h
Staphylococcus aureus [4] = experiment: Antibacterial activity against Staphylococcus aureus ATCC 25923 assessed as inhibition of bacterial growth incubated at 37 degC for 24 hrs by broth microdilution assay; format: functional; conditions: ATCC 25923, 24 h
Escherichia coli [5] = experiment: microbe, parasite or virus in culture; conditions: ATCC 25922, 24 h
Description: Antibacterial activity against Escherichia coli ATCC 25922 assessed as inhibition of bacterial growth incubated at 37 degC for 24 hrs by broth microdilution assay

Enterococcus faecalis [6] = experiment: microbe, parasite or virus in culture; conditions: ATCC 29212, 24 h
Description: Antibacterial activity against Enterococcus faecalis ATCC 29212 assessed as inhibition of bacterial growth incubated at 37 degC for 24 hrs by broth microdilution assay

| SMILES | inhibition at 100 µg/mL (Enterococcus faecalis [1]) [%] | inhibition at 100 µg/mL (Escherichia coli [2]) [%] | inhibition at 100 µg/mL (Staphylococcus aureus [3]) [%] | MIC90 (Staphylococcus aureus [4]) [µg/mL] | MIC90 (Escherichia coli [5]) [µg/mL] | MIC90 (Enterococcus faecalis [6]) [µg/mL] |
| --- | --- | --- | --- | --- | --- | --- |
| CCCCC/C=C\C/C=C\CCCCCCCC(=O)/C=C(/C)O | -10 | -2.4 | -17 |  |  |  |
| CCCCCCCCCCC[C@H](O)C[C@H]1CC(=O)C=C(C)O1 | 23 | 27 | -8.5 |  |  |  |
| CCCCCCCCCCCc1cccc(O)c1C(C)=O | -1 | -3.3 | 65 |  |  |  |
| O=C(O)c1cn(C2CC2)c2cc(N3CCNCC3)c(F)cc2c1=O [CIPROFLOXACIN] |  |  |  | 0.5 (≈ 1.51 µM) | 0.016 (≈ 0.0483 µM) | 1 (≈ 3.02 µM) |
| CCCCCCCCCCCC1=C(C(C)=O)C(=O)C[C@@H](O)C1 | 23 | 29 | 100 | 25 (≈ 81 µM) |  |  |
| CCCCCCCCCCCC1CC=C/C(=C\C(C)=O)O1 (stereo not given) | 21 | 15 | -95 |  |  |  |
| CCCCCCCCCCCc1cc(O)cc(O)c1C(C)=O | -9.8 | -1 | 17 |  |  |  |
| CCCCCCCCCCCC1CC=C/C(=C/C(C)=O)O1 (stereo not given) | 19 | 25 | -57 |  |  |  |
